# According to US20090170758A1, “COMPOSITIONS COMPRISING PULMONARY SURFACTANTS AND A POLYMYXIN HAVING IMPROVED SURFACE PROPERTIES” (Chiesi Farmaceutici S.p.A., priority 2002, published 2009):
# Experiment: Spreading experiments on a modified Wilhelmy balance
# Format: physicochemical
# Conditions: Curosurf diluted to 20 mg/ml, 10 microl
# Protocol: Experiments were performed at 37° C. using a modified Wilhelmy balance with a surface area of 20 cm^2. Standard amounts of Curosurf at various concentrations (10-80 mg/ml) were applied onto a hypophase of saline, approximately 40 mm from the dipping plate. In some experiments, CaCl2 (2 mM), dextran (30 mg/ml), or polymyxin B (2% on the weight of the surfactant, i.e. 0.4 mg/ml) was added to diluted surfactant material (20 mg/ml). The effect of albumin at low concentration (0.1 mg/ml) added to the hypophase was also investigated. Surface tension, measured 1 sec after administration of the sample was used as a parameter combining spreading and film formation by adsorption from the hypophase.
# [1] = agent added to surfactant (CaCl2 2 mM, dextran 30 mg/ml, polymyxin B 2% = 0.4 mg/ml), no albumin
# [2] = agent added to surfactant, albumin 0.1 mg/ml added to the hypophase
Compound,Surface tension at 1 sec (mN/m) [1],Surface tension at 1 sec (mN/m) [2]
[Ca+2].[Cl-].[Cl-] [CaCl2],52 mN/m,70 mN/m
polymyxin B,28 mN/m,45 mN/m
